Experimental data published in patent publication US11254686B1 (Corvus Pharmaceuticals, Inc., priority 2017, dated 2022).

Legend:
adenosine A2A receptor = adenosine A2A receptor (Homo sapiens (Human), UniProt P29274); experiment: Adenosine receptor activity assay (Table 1), A2A activity; assay type: biochemical; details: read-out: Ave A2A cAMP IC50
adenosine A2B receptor = adenosine A2B receptor (Homo sapiens (Human), UniProt P29275); experiment: Adenosine receptor activity assay (Table 1), A2B activity; assay type: biochemical; details: for IC50: read-out: Ave A2B cAMP IC50
[1] = A2A activity to A2B activity (A2A/A2B)
[2] = A2A activity to the A2B activity, A2A/A2B

adenosine A2B receptor, sequence (P29275 whole entry): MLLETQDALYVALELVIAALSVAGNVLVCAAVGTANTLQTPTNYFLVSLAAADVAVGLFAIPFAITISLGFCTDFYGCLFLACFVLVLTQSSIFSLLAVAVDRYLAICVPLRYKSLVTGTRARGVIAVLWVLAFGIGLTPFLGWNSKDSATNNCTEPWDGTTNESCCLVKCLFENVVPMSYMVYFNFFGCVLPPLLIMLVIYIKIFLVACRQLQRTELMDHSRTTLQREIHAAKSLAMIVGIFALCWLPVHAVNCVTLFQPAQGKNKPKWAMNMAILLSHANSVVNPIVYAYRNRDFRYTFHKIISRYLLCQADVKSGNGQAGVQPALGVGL
adenosine A2A receptor, sequence (P29274 whole entry): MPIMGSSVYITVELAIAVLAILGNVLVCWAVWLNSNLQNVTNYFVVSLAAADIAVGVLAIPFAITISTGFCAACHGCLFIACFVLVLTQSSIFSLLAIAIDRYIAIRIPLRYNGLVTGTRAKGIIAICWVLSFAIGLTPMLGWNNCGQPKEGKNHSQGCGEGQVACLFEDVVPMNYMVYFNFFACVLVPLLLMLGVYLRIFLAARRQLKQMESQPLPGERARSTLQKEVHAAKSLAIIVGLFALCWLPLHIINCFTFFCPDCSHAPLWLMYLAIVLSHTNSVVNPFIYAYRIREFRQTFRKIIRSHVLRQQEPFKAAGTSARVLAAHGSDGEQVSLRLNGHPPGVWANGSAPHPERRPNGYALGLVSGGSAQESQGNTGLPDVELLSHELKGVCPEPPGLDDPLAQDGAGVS

Compound: C[C@H](Nc1nc(C(=O)N2CCC2)c2sc(N)cc2n1)c1cccnc1 [Example Z203, (S)-(6-Amino-2-((1-(pyridin-3-yl)ethyl)amino)thieno[3,2-d]pyrimidin-4-yl)(azetidin-1-yl)methanone]
- IC50 (adenosine A2A receptor): 100 to 500 nM
- Ratio (adenosine A2B receptor; [1]): 33.74
- IC50 (adenosine A2B receptor): 10 to 50 nM

Compound: C[C@H](Nc1nc(C(=O)NCC(C)(C)O)c2sccc2n1)c1ccccn1 [Example Z230, (S)—N-(2-Hydroxy-2-methylpropyl)-2-((1-(pyridin-2-yl)ethyl)amino)thieno[3,2-d]pyrimidine-4-carboxamide]
- IC50 (adenosine A2A receptor): > 500 nM
- Ratio (adenosine A2B receptor; [1]): 7.45
- IC50 (adenosine A2B receptor): 100 to 500 nM

Compound: C[C@H](Nc1nc(C(=O)NCc2ccc(C(F)(F)F)nc2)c2sccc2n1)c1ccccn1 [Example Z79, (S)-2-((1-(Pyridin-2-yl)ethyl)amino)-N-((6-(trifluoromethyl)pyridin-3-yl)methyl)thieno[3,2-d]pyrimidine-4-carboxamide]
- IC50 (adenosine A2A receptor): 100 to 500 nM
- Ratio (adenosine A2B receptor; [1]): 1.20
- IC50 (adenosine A2B receptor): 50 to 100 nM

Compound: COC[C@H](Nc1nc(C(=O)NC[C@H](C)O)c2sccc2n1)c1cccnc1 [Example Z323, N—((S)-2-Hydroxypropyl)-2-(((R)-2-methoxy-1-(pyridin-3-yl)ethyl)amino)thieno[3,2-d]pyrimidine-4-carboxamide]
- IC50 (adenosine A2A receptor): > 500 nM
- Ratio (adenosine A2B receptor; [1]): 3.30
- IC50 (adenosine A2B receptor): > 500 nM

Compound: Cc1cc2nc(N[C@@H](C)c3cncc(F)c3)nc(C(=O)NCCC3CCN(C(=O)OC(C)(C)C)CC3)c2s1 [Example Z487, tert-Butyl (S)-4-(2-(2-((1-(5-fluoropyridin-3-yl)ethyl)amino)-6-methylthieno[3,2-d]pyrimidine-4-carboxamido)ethyl)piperidine-1-carboxylate]
- IC50 (adenosine A2A receptor): > 500 nM
- Ratio (adenosine A2B receptor; [2]): 6.54
- IC50 (adenosine A2B receptor): 100 to 500 nM

Compound: C[C@H](Nc1nc(C(=O)NCCNS(C)(=O)=O)c2sccc2n1)c1cncc(F)c1 [Example Z538, (S)-2-((1-(5-Fluoropyridin-3-yl)ethyl)amino)-N-(2-(methylsulfonamido)ethyl)thieno[3,2-d]pyrimidine-4-carboxamide]
- IC50 (adenosine A2A receptor): > 500 nM
- Ratio (adenosine A2B receptor; [2]): 12.33
- IC50 (adenosine A2B receptor): 10 to 50 nM

Compound: COCCNC(=O)c1nc(NCc2cncc(F)c2)nc2ccsc12 [Example Z146, 2-(((5-Fluoropyridin-3-yl)methyl)amino)-N-(2-methoxyethyl)thieno[3,2-d]pyrimidine-4-carboxamide]
- IC50 (adenosine A2A receptor): 100 to 500 nM
- IC50 (adenosine A2B receptor): 10 to 50 nM

Compound: C[C@H](Nc1nc(C(=O)N2CCC(C(=O)O)C2)c2sccc2n1)c1ccccn1 (stereo partly drawn) [Example Z380, 1-(2-(((S)-1-(Pyridin-2-yl)ethyl)amino)thieno[3,2-d]pyrimidine-4-carbonyl)pyrrolidine-3-carboxylic acid]
- IC50 (adenosine A2A receptor): > 500 nM
- Ratio (adenosine A2B receptor; [1]): 13.21
- IC50 (adenosine A2B receptor): > 500 nM

Compound: O=C(NCC1CCN(Cc2ccccc2)CC1)c1nc(NCc2cncc(F)c2)nc2ccsc12 [Example Z68, N-((1-Benzylpiperidin-4-yl)methyl)-2-(((5-fluoropyridin-3-yl)methyl)amino)thieno[3,2-d]pyrimidine-4-carboxamide]
- IC50 (adenosine A2A receptor): 50 to 100 nM
- IC50 (adenosine A2B receptor): 50 to 100 nM

Compound: CNc1cc2nc(N[C@@H](C)c3ccccn3)nc(C(=O)N3CC[C@@H](C)C3)c2s1 [Example Z207, (6-(Methylamino)-2-(((S)-1-(pyridin-2-yl)ethyl)amino)thieno[3,2-d]pyrimidin-4-yl)((R)-3-methylpyrrolidin-1-yl)methanone]
- IC50 (adenosine A2A receptor): 100 to 500 nM
- Ratio (adenosine A2B receptor; [1]): 14.35
- IC50 (adenosine A2B receptor): 10 to 50 nM

Compound: CC(C)(C)OC(=O)N1CC(NC(=O)c2nc(NCc3cncc(F)c3)nc3ccsc23)C1 [Example Z178, tert-Butyl 3-(2-(((5-fluoropyridin-3-yl)methyl)amino)thieno[3,2-d]pyrimidine-4-carboxamido)azetidine-1-carboxylate]
- IC50 (adenosine A2A receptor): 100 to 500 nM
- Ratio (adenosine A2B receptor; [1]): 3.76
- IC50 (adenosine A2B receptor): 100 to 500 nM

Compound: COc1ccc(CNC(=O)c2nc(NCc3cncc(F)c3)nc3ccsc23)cn1 [Example Z67, 2-(((5-Fluoropyridin-3-yl)methyl)amino)-N-((6-methoxypyridin-3-yl)methyl)thieno[3,2-d]pyrimidine-4-carboxamide]
- IC50 (adenosine A2A receptor): 100 to 500 nM
- IC50 (adenosine A2B receptor): 10 to 50 nM

Compound: C[C@H](Nc1nc(C(=O)NCc2cncnc2)c2sccc2n1)c1cccnc1 [Example Z6, (S)-2-((1-(Pyridin-3-yl)ethyl)amino)-N-(pyrimidin-5-ylmethyl)thieno[3,2-d]pyrimidine-4-carboxamide]
- IC50 (adenosine A2A receptor): > 500 nM
- Ratio (adenosine A2B receptor; [1]): 0.49
- IC50 (adenosine A2B receptor): > 500 nM

Compound: O=C(NC1CCC1)c1nc(NCc2cnccn2)nc2ccsc12 [Example Z154, N-Cyclobutyl-2-((pyrazin-2-ylmethyl)amino)thieno[3,2-d]pyrimidine-4-carboxamide]
- IC50 (adenosine A2A receptor): 100 to 500 nM
- Ratio (adenosine A2B receptor; [1]): 4.52
- IC50 (adenosine A2B receptor): 50 to 100 nM

Compound: C[C@H](Nc1nc(C(=O)N2CC[C@@H](F)C2)c2sc(N)cc2n1)c1cccnc1 [Example Z195, (6-Amino-2-(((S)-1-(pyridin-3-yl)ethyl)amino)thieno[3,2-d]pyrimidin-4-yl)((R)-3-fluoropyrrolidin-1-yl)methanone]
- IC50 (adenosine A2A receptor): 100 to 500 nM
- Ratio (adenosine A2B receptor; [1]): 17.59
- IC50 (adenosine A2B receptor): 10 to 50 nM

Compound: Cc1csc2c(C(=O)NCc3ccccc3)nc(N[C@@H](C)c3ccccn3)nc12 [Example Z443, (S)—N-Benzyl-7-methyl-2-((1-(pyridin-2-yl)ethyl)amino)thieno[3,2-d]pyrimidine-4-carboxamide]
- IC50 (adenosine A2A receptor): 10 to 50 nM
- Ratio (adenosine A2B receptor; [2]): 0.44
- IC50 (adenosine A2B receptor): 50 to 100 nM

Compound: O=C(c1nc(NCc2ccccc2)nc2ccsc12)N1CC[C@H](O)C1 [Example Z40, (S)-(2-(Benzylamino)thieno[3,2-d]pyrimidin-4-yl)(3-hydroxypyrrolidin-1-yl)methanone]
- IC50 (adenosine A2A receptor): > 500 nM
- Ratio (adenosine A2B receptor; [1]): 21.05
- IC50 (adenosine A2B receptor): 100 to 500 nM

Compound: C[C@H](Nc1nc(C(=O)N2CC[C@H](NC(=O)OC(C)(C)C)C2)c2sccc2n1)c1cccnc1 [Example Z314, tert-Butyl ((S)-1-(2-(((S)-1-(pyridin-3-yl)ethyl)amino)thieno[3,2-d]pyrimidine-4-carbonyl)pyrrolidin-3-yl)carbamate]
- IC50 (adenosine A2A receptor): 50 to 100 nM
- Ratio (adenosine A2B receptor; [1]): 0.46
- IC50 (adenosine A2B receptor): 100 to 500 nM

Compound: CO[C@H](C)CNC(=O)c1nc(N[C@@H](C)c2cccnc2)nc2cc(C)sc12 [Example Z400, N—((R)-2-Methoxypropyl)-6-methyl-2-(((S)-1-(pyridin-3-yl)ethyl)amino)thieno[3,2-d]pyrimidine-4-carboxamide]
- IC50 (adenosine A2A receptor): > 500 nM
- Ratio (adenosine A2B receptor; [2]): 12.22
- IC50 (adenosine A2B receptor): 50 to 100 nM

Compound: COC[C@@H](Nc1nc(C(=O)NC[C@H](C)O)c2sccc2n1)c1cccnc1 [Example Z320, N—((S)-2-Hydroxypropyl)-2-(((S)-2-methoxy-1-(pyridin-3-yl)ethyl)amino)thieno[3,2-d]pyrimidine-4-carboxamide]
- IC50 (adenosine A2A receptor): 100 to 500 nM
- Ratio (adenosine A2B receptor; [1]): 3.92
- IC50 (adenosine A2B receptor): 50 to 100 nM

Compound: Cc1cc2nc(N[C@@H](C)c3ccccn3)nc(C(=O)N3CC(CNC(=O)C(C)(C)C)C3)c2s1 [Example Z527, (S)—N-((1-(6-Methyl-2-((1-(pyridin-2-yl)ethyl)amino)thieno[3,2-d]pyrimidine-4-carbonyl)azetidin-3-yl)methyl)pivalamide]
- IC50 (adenosine A2A receptor): > 500 nM
- Ratio (adenosine A2B receptor; [2]): 7.31
- IC50 (adenosine A2B receptor): 50 to 100 nM

Compound: C[C@H](Nc1nc(C(=O)NC[C@H]2CCCN2)c2sccc2n1)c1ccccn1 [Example Z370, 2-(((S)-1-(pyridin-2-yl)ethyl)amino)-N—(((R)-pyrrolidin-2-yl)methyl)thieno[3,2-d]pyrimidine-4-carboxamide]
- IC50 (adenosine A2A receptor): > 500 nM
- Ratio (adenosine A2B receptor; [1]): 1.81
- IC50 (adenosine A2B receptor): > 500 nM
